Assay results from patent publication US20220110916A1, “Antioxidant and Use Thereof” (Bioradical Research Institute Corp., priority 2019, published 2022).

Tests used:
[1] = Storage stability in pH7.4-PBS or pure water at 37° C. protected from light, residual rate by HPLC; type: physicochemical; settings: 200 μmol/l; for Residual rate (%) After 1 week / Residual rate (%) After 2 weeks: 37° C., protected from light; for Residual rate (%) Initial concentration: initial concentration (reference 100%)
Experimental: The storage stability of edaravone, EMPO, ED2AP, and BisEp-C3 of the following formula (A) were examined. Specifically, edaravone, EMPO, ED2AP, and BisEp-C3 were dissolved in pH7.4-PBS or pure water so as to have a final concentration of 200 μmol/l to prepare dissolved solutions of these compounds. When the compounds were difficult to be dissolved, they were dissolved in an ultrasonic cleaner with warm water at 40° C.
Under the measurement conditions for HPLC described below, the initial concentration was quantified, and then each solution was stored in an oven, which was protected from light, at 37° C., and quantified under the same measurement conditions after 1 week and 2 weeks, to determine residual rate (%) with the initial concentration (100%) being a reference.
Measurement conditions for HPLC
PDA detector (Format: SPD-M20A) HPLC Assay Conditions:
Column: Atlantis dC18 5 μm (250×4.6 mm I.D.; produced by Waters)
Column temperature: 45° C.
Detection method: UV (254 nm)
Eluate A: pH3 buffer solution (adjusted to pH3 by adding phosphoric acid to 0.05M KH2PO4 aqueous solution)/methanol=90/10

[2] = Water solubility noted at synthesis; type: physicochemical; settings: crystal obtained in Example 1
Experimental: 3.58 g of 3-methyl-1-phenyl-5-pyrazolone (hereinafter, also referred to as “edaravone”), 2.59 g of malonaldehyde dianilide hydrochloride, and 20 ml of ethanol were added to a reactor and dissolved. To the obtained solution, 2.04 g of triethylamine and 0.4 ml of water were added and stirred for 1 hour at room temperature (about 25° C., hereinafter, the same applies). After the stirring, the resultant was further reacted for 1 hour at 50° C. After discharging the obtained reaction solution to 100 ml of 1N hydrochloric acid, the mixture was sufficiently stirred and the precipitate was filtered. The resulting cake was washed with water. The cake was added to 200 ml of an aqueous sodium hydroxide solution having a 1% by weight concentration and completely dissolved by heating with stirring. Next, the dissolved solution was stirred for 3 hours after cooling to room temperature. Then, the liquid containing the obtained precipitate was filtered, and then the cake was washed with water. […] Note that the melting point of ED2AP was 249° C., which was water-soluble.
3 ml of dimethylformamide was added to a reactor and the exterior of the reactor was cooled with ice water. 1.75 g of phosphorus oxychloride was slowly dropped into the reactor (Reaction Solution A). In another reactor, 1.78 g of edaravone was dissolved in 5 ml of dimethylformamide (Reaction Solution B). Under room temperature, the reaction solution B was slowly added to the reaction solution A, and the resulting mixture was allowed to react for 1 hour with the end of addition (Reaction Solution C) being a reference. In another reactor, 1.81 g of 3-methyl-1-phenyl-5-pyrazolone was added to 8 ml of chloroform and dissolved (Reaction Solution D). Under room temperature, the reaction solution C was slowly added to the reaction solution D, followed by stirring for 20 minutes and further stirring at 70° C. for 1 hour. To the resultant, 0.2 g of water was added and stirred for another 2 hours. The obtained reaction solution was discharged into 100 ml of water and extracted with a mixed solvent of toluene/ethyl acetate=1/1 (volume ratio). After condensation of the obtained extract, column purification was performed to obtain 2.92 g of yellow crystal of the compound of the formula (10) having the following physical properties.
1.00 g of edaravone, 0.72 g of paraformaldehyde, and 20 ml of formic acid were added to a reaction flask and stirred overnight for 20 hours at 70° C. The obtained reaction solution was discharged into 80 ml of water and extracted with a mixed solvent of toluene/ethyl acetate=1/1 (volume ratio). When the extract was condensed to about two-thirds, crystals were precipitated. Further, the resultant was cooled to room temperature, and sufficiently crystallized, and then filtered. The obtained cake was washed with toluene to obtain 0.88 g of pale yellow crystal of the compound of the formula (14) having the following physical properties.
In Example 1(1), synthesis was performed in the same manner as described above except that 3-methyl-1-ethyl-5-pyrazolone was used instead of edaravone to obtain red crystal of BisEp-C3 having the following physical properties. Note that BisEp-C3 was water-soluble.
In Example 1(2), synthesis was performed in the same manner as described above except that 3-methyl-1-ethyl-5-pyrazolone was used instead of edaravone to obtain yellow crystal of BisEp-C1 having the following physical properties. Note that BisEp-C1 was water-soluble.
In Example 1(3), synthesis was performed in the same manner as described above except that 3-methyl-1-ethyl-5-pyrazolone was used instead of edaravone, then the obtained reaction solution was condensed, and the resultant was subjected to column purification to obtain colorless crystal of BisEp-C1 (H2) having the following physical properties. Note that BisEp-C1 (H2) was water-soluble.

rat neuroid cells B50 [3] = assay: Toxicity evaluation, cell viability by Alamar Blue after 24 hours; type: cell-based; settings: 12.5, 25, 50, 100, or 200 μmol/l, FIG. 5
Experimental: Rat neuroid cells B50 were seeded in 12-well plates and then cultured. Edaravone (RC), ED2AP, or BisEp-C3 was added to each well so as to achieve a predetermined concentration (12.5, 25, 50, 100, or 200 μmol/l), and then incubated for 24 hours at 37° C. and 5% CO2. Cell viability in each well after the culture was measured using Alamar Blue.

rat neuroid cells B50 [4] = assay: Toxicity evaluation on byproducts after reaction with singlet oxygen, cell viability; type: cell-based; settings: 50, 100, or 200 μmol/l reacted with RB + G-LED 525 nm in cell-free system; FIG. 6
Experimental: In a cell-free system, the RB was added to media (50% FCS-containing RPMI-1640 media) containing edaravone, ED2AP, and BisEp-C3 having a predetermined concentration (50, 100, or 200 μmol/l) and then irradiated with LED (G-LED) at 525 nm to generate singlet oxygen, whereby reacting each compound with singlet oxygen. The cell viability was measured in the same manner as in Example 7(1), except that the culture solution after the reaction was used as a medium of the neuroid cell B50. As a negative control (NC), the cell viability was measured in the same manner except that each compound and […] were not added in the cell-free system. Further, as a control (RB), the cell viability was measured in the same manner except that each compound was not added and only […] was added in the cell-free system.

CCN1N=C(C)/C(=C\C=C\c2c(C)nn(CC)c2O)C1=O (racemic) [BisEp-C3, 2,4-dihydro-4-[3-(1-ethyl-5-hydroxy-3-methyl-1H-pyrazol-4-yl)-2-propen-1-ylidene]-2-ethyl-5-methyl-3H-pyrazol-3-one]
Residual rate (%) After 1 week ([1]; Pure water): 99.4% | Residual rate (%) After 2 weeks ([1]; Pure water): 88.5% | Residual rate (%) Initial concentration ([1]; Pure water): 100% | Residual rate (%) After 1 week ([1]; pH 7.4-PBS): 98.7% | Residual rate (%) After 2 weeks ([1]; pH 7.4-PBS): 93.6% | Residual rate (%) Initial concentration ([1]; pH 7.4-PBS): 100% | solubility in water [2]: water-soluble | cytotoxicity (cell viability) (rat neuroid cells B50 [3]): not cytotoxic at any concentration | cytotoxicity of the byproducts after reaction with singlet oxygen (cell viability) (rat neuroid cells B50 [4]): not cytotoxic at any concentration

CC1=NN(c2ccccc2)C(=O)/C1=C/C=C/c1c(C)nn(-c2ccccc2)c1O (racemic) [ED2AP, 2,4-dihydro-4-[3-(5-hydroxy-3-methyl-1-phenyl-1H-pyrazol-4-yl)-2-propen-1-ylidene]-5-methyl-2-phenyl-3H-pyrazol-3-one]
Residual rate (%) After 1 week ([1]; Pure water): 96.1% | Residual rate (%) After 2 weeks ([1]; Pure water): 89.8% | Residual rate (%) Initial concentration ([1]; Pure water): 100% | Residual rate (%) After 1 week ([1]; pH 7.4-PBS): 96.2% | Residual rate (%) After 2 weeks ([1]; pH 7.4-PBS): 91.3% | Residual rate (%) Initial concentration ([1]; pH 7.4-PBS): 100% | solubility in water [2]: water-soluble | cytotoxicity (cell viability) (rat neuroid cells B50 [3]): not cytotoxic at any concentration | cytotoxicity of the byproducts after reaction with singlet oxygen (cell viability) (rat neuroid cells B50 [4]): not cytotoxic at any concentration
